Molecular target: T1, ADAMTS-7 (Homo sapiens, UniProt Q9UKP4)
T1 construct: the recombinant construct ADAMTS7-T8, which lacks the C-terminal PLAC domain; made in house
T1 sequence (Q9UKP4 237-1631 limits assumed): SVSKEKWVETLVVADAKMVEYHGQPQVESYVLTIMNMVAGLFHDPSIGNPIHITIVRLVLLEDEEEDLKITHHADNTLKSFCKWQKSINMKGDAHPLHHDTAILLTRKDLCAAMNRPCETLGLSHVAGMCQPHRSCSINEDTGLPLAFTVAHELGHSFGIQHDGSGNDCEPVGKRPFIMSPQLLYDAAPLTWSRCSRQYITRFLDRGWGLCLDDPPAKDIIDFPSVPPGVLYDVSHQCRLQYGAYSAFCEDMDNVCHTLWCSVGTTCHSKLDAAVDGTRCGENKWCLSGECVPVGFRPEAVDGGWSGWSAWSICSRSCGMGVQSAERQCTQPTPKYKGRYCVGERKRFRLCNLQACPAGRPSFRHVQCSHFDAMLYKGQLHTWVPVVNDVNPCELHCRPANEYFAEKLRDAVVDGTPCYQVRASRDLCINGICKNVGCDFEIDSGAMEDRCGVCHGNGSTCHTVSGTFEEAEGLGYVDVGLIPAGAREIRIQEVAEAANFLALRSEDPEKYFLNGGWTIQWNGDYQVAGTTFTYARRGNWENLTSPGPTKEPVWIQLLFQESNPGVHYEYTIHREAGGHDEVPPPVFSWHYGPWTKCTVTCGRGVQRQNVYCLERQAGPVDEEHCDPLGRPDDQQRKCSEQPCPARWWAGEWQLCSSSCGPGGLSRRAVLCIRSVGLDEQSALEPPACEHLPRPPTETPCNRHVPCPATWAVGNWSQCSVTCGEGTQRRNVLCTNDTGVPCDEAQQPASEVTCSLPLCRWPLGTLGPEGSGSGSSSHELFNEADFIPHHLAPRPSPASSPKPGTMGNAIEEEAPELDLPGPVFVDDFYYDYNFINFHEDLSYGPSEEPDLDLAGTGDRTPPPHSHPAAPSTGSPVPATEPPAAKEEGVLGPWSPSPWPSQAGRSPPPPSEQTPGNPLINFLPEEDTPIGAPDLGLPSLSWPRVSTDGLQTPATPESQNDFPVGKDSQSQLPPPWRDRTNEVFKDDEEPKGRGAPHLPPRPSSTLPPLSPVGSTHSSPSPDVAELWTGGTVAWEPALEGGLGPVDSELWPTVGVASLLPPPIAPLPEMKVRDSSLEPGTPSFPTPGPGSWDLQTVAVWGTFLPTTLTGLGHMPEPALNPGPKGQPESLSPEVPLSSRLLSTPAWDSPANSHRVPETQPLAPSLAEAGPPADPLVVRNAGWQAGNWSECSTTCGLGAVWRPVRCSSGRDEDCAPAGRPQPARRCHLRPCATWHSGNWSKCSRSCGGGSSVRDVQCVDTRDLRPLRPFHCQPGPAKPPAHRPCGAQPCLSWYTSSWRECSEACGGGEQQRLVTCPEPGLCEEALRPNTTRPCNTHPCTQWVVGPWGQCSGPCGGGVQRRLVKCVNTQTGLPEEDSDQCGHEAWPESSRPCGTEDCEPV
Test: Inhibition of ADAMTS-7 cleavage of FRET substrate ATS7FP7
Type: biochemical
Description: All enzyme assays were conducted in TNC-B buffer (50 mM Tris- HCl, pH 7.5, 150 mM NaCl, 10 mM CaCl2, and 0.02% NaN3) at 37 °C in 384 well plates (Cat. No: 784900, Greiner Bio-One, Austria). To avoid the formation of inhibitor or peptide aggregates, the detergent Brij-35 (0.05%) was added to TNC-B[13]. For inhibition studies, stock solutions of chemical compounds were prepared in dimethyl sulfoxide (DMSO) (10 mM). […] Blank samples were prepared using buffer only and the rate of cleavage for blank reactions was subtracted from the rates measured in the presence of enzyme. Upon addition of the indicated ADAMTS-7 FRET substrates (40 µM), the fluorescence was measured immediately using a FLUOstar Omega microplate reader (BMG Labtech, Germany) with an excitation filter wavelength of 485 nm and an emission filter wavelength of 520 nm.

IC50 (ATS7FP7 40 μM, 1 h preincubation, 37 °C): 330 ± 70 nM | increase of ADAMTS-7 inhibition relative to JG23 (against ATS7FP7): approximately 2 fold | Ki (read-out: Ki app (ATS7FP7 substrate)): 68 ± 14 nM
Structure (SMILES): O=C(NCCC[C@@H](NS(=O)(=O)c1ccc(OCc2ccc(F)cc2Cl)cc1)C(=O)NO)c1ccccc1 [EDV33]

Source: paper PMC8494430, “Development of a fluorogenic ADAMTS-7 substrate” (Journal of Enzyme Inhibition and Medicinal Chemistry, 2021)
